From ChEMBL document CHEMBL4421722, “Inhibitors of protein prenyltransferases” (2013)
One block for each compound: values may come before it. Activity calls are given as the source filed them. The rule behind the calls is not given here.

Legend:
K562 = assay: Antiproliferative activity against human K562 cells assessed as inhibition of cell proliferation incubated for 72 hrs by CCK8 assay; format: functional, cell-based; conditions: K562, 72 h
PANC-1 [1] = assay: Antiproliferative activity against human PANC1 cells assessed as inhibition of cell proliferation incubated for 72 hrs by CCK8 assay; format: functional, cell-based; conditions: PANC-1, 72 h
BT-474 = assay: Antiproliferative activity against human BT474 cells assessed as inhibition of cell proliferation incubated for 72 hrs by CCK8 assay; format: functional, cell-based; conditions: BT-474, 72 h
[2] = Inhibition of rat recombinant geranylgeranyltransferase type I expressed in Escherichia coli assessed as reduction in geranylgeranylation of RhoA incubated for 30 mins in presence of [3H]GGPP by scintillation counting assay relative to control
CFPAC-1 = assay: Antiproliferative activity against human CFPAC-1 cells assessed as inhibition of cell proliferation incubated for 72 hrs by CCK8 assay; format: functional, cell-based; conditions: CFPAC-1, 72 h
Jurkat [3] = assay: Antiproliferative activity against human Jurkat cells assessed as inhibition of cell proliferation incubated for 72 hrs by CCK8 assay; format: functional, cell-based
MDA-MB-231 = assay: Antiproliferative activity against human MDA-MB-231 cells assessed as inhibition of cell proliferation incubated for 72 hrs by CCK8 assay; format: functional; conditions: MDA-MB-231, 72 h
Capan-2 = assay: Antiproliferative activity against human Capan2 cells assessed as inhibition of cell proliferation incubated for 72 hrs by CCK8 assay; format: functional, cell-based; conditions: Capan-2, 72 h
ASPC1 = assay: Antiproliferative activity against human AsPC1 cells assessed as inhibition of cell proliferation incubated for 6 days by CCK8 assay; format: functional, cell-based; conditions: ASPC1, 144 h
MIA PaCa-2 = assay: Antiproliferative activity against human MIAPaCa2 cells assessed as inhibition of cell proliferation incubated for 72 hrs by CCK8 assay; format: functional, cell-based; conditions: MIA PaCa-2, 72 h
HEK293 [4] = assay: Inhibition of geranylgeranyltransferase type I in HEK293 cells expressing Myc-HA-tagged Rheb-WT assessed as effect on unprenylated Rap1 accumulation at 1.25 to 10 uM incubated for 48 hrs by SDS-PAGE and immunoblot analysis; format: cell-based; conditions: Homo sapiens
HEK293 [5] = assay: Inhibition of geranylgeranyltransferase type I in HEK293 cells expressing Myc-HA-tagged Rheb-CVSL assessed as effect on unprenylated Rap1 accumulation at 5 to 10 uM incubated for 48 hrs by SDS-PAGE and immunoblot analysis; format: cell-based; conditions: Homo sapiens
HEK293 [6] = assay: Inhibition of geranylgeranyltransferase type I in HEK293 cells expressing Myc-HA-tagged Rheb-CVSL assessed as effect on unprenylated Rap1 accumulation at 12.5 to 50 uM incubated for 48 hrs by SDS-PAGE and immunoblot analysis; format: cell-based; conditions: Homo sapiens
[7] = biological target: T1, Geranylgeranyl transferase type-2 (Homo sapiens) (UniProt P53611+Q92696); assay: Inhibition of RabGGTase (unknown origin) up to 10000 nM using YPTI as substrate protein and [3H]geranylgeranyl pyrophosphate incubated for 20 mins by scintillation counting assay; format: protein-complex assay
Rattus norvegicus [8] = species: Rattus norvegicus; assay: (§1) Competitive inhibition of rat recombinant geranylgeranyltransferase type I expressed in Escherichia coli assessed as reduction in geranylgeranylation of RhoA incubated for 30 mins in presence of varying level of [3H]GGPP and fixed RhoA levels by scintillation counting assay relative to control
PANC-1 [9] = assay: Antiproliferative activity against human PANC1 cells assessed as inhibition of cell proliferation at 12.5 uM incubated for 72 hrs by CCK8 assay; format: functional, cell-based
[10] = Inhibition of rat recombinant geranylgeranyltransferase type I expressed in Escherichia coli assessed as reduction in geranylgeranylation of K-Ras4B incubated for 30 mins in presence of [3H]GGPP by scintillation counting assay
Rattus norvegicus [11] = species: Rattus norvegicus; assay: Inhibition of rat recombinant geranylgeranyltransferase type I expressed in Escherichia coli assessed as residual enzyme activity for geranylgeranylation of K-Ras4B at 50 uM incubated for 30 mins in presence of [3H]GGPP by scintillation counting assay relative to control
Rattus norvegicus [12] = species: Rattus norvegicus; assay: Competitive inhibition of rat recombinant geranylgeranyltransferase type I expressed in Escherichia coli assessed as reduction in geranylgeranylation of RhoA incubated for 30 mins in presence of fixed level of [3H]GGPP and varying RhoA levels by scintillation counting assay relative to control
Jurkat [13] = assay: Antiproliferative activity against human Jurkat cells assessed as inhibition of cell proliferation at 12.5 uM incubated for 72 hrs by CCK8 assay; format: functional, cell-based
[14] = biological target: Protein farnesyltransferase (Rattus norvegicus) (UniProt Q04631+Q02293); assay: Inhibition of rat recombinant FTase alpha/beta expressed in Escherichia coli at 50000 nM using K-Ras4B as a substrate as and [3H]farnesyl pyrophosphate incubated for 30 mins by scintillation counting assay
HEK293 [15] = assay: Inhibition of geranylgeranyltransferase type I in HEK293 cells expressing Myc-HA-tagged Rheb-WT assessed as effect on unprenylated Rap1 accumulation at 3.1 to 25 uM incubated for 48 hrs by SDS-PAGE and immunoblot analysis; format: cell-based; conditions: Homo sapiens
Rattus norvegicus [16] = species: Rattus norvegicus; assay: Inhibition of rat recombinant geranylgeranyltransferase type I expressed in Escherichia coli assessed as residual enzyme activity for geranylgeranylation of RhoA at 50 uM incubated for 30 mins in presence of [3H]GGPP by scintillation counting assay relative to control
Rattus norvegicus [17] = species: Rattus norvegicus; assay: as §1, with “Uncompetitive” for “Competitive”, “by Michaelis-Menten plot analysis” for “relative to control”
HEK293 [18] = assay: Inhibition of geranylgeranyltransferase type I in HEK293 cells expressing Myc-HA-tagged Rheb-WT assessed as effect on unprenylated Rap1 accumulation at 2.5 uM incubated for 48 hrs by SDS-PAGE and immunoblot analysis; format: cell-based; conditions: Homo sapiens
HEK293 [19] = assay: Inhibition of geranylgeranyltransferase type I in HEK293 cells expressing Myc-HA-tagged Rheb-WT assessed as effect on unprenylated Rap1 accumulation at 5 to 20 uM incubated for 48 hrs by SDS-PAGE and immunoblot analysis; format: cell-based; conditions: Homo sapiens
[20] = biological target: Protein farnesyltransferase (Homo sapiens) (UniProt P49354+P49356); assay: Inhibition of FTase in HEK293 cells assessed as reduction in H-ras farnesylation at […] 10 uM incubated for 48 hrs by SDS-PAGE and immunoblot analysis; format: cell-based
[21] = biological target: T2, Geranylgeranyl transferase type-2 (Homo sapiens, UniProt P53611+Q92696); assay: Competitive type inhibition of RabGGTase (unknown origin) using varying Rab7 as substrate protein and fixed [3H]geranylgeranyl pyrophosphate incubated for 20 mins by scintillation counting assay; format: protein-complex assay
T2 sequence (P53611 whole entry): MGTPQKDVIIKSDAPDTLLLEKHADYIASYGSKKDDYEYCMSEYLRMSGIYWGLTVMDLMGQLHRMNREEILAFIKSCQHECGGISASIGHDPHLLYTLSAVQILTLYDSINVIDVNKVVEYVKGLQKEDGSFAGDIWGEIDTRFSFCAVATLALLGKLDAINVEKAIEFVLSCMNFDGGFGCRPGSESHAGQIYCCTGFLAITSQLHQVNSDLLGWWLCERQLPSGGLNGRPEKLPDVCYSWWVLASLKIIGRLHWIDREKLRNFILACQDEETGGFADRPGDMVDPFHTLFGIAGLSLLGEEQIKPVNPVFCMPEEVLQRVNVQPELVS
T2 sequence (Q92696 whole entry): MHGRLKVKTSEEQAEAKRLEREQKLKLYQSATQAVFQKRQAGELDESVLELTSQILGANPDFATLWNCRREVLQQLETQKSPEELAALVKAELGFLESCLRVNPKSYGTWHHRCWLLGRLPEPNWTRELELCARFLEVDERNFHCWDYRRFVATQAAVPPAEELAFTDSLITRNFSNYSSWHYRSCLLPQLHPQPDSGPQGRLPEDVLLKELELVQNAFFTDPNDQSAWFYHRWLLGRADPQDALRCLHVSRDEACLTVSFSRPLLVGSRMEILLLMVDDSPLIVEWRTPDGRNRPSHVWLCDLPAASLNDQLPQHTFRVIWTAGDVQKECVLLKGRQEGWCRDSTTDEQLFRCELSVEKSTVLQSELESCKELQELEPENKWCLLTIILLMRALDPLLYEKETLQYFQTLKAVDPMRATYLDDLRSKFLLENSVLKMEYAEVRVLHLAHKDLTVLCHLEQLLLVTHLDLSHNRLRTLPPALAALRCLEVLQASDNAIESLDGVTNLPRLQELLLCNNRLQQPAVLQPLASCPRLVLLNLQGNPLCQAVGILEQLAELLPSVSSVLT

[22] = biological target: T2, Geranylgeranyl transferase type-2; assay: Inhibition of RabGGTase (unknown origin) using YPTI as substrate protein and [3H]geranylgeranyl pyrophosphate incubated for 20 mins by scintillation counting assay; format: protein-complex assay
[23] = biological target: T1, Geranylgeranyl transferase type-2 (Homo sapiens); assay: Inhibition of RabGGTase in HEK293 cells assessed as reduction in geranylgeranylation of Rab5b protein at 5 to 20 uM incubated for 48 hrs by SDS-PAGE and immunoblot analysis; format: cell-based
[24] = biological target: Protein farnesyltransferase (Rattus norvegicus, UniProt Q02293+Q04631); assay: Inhibition of rat recombinant FTase alpha/beta expressed in Escherichia coli using K-Ras4B as a substrate as and [3H]farnesyl pyrophosphate incubated for 30 mins by scintillation counting assay
[25] = biological target: T1, Geranylgeranyl transferase type-2 (Homo sapiens); assay: Inhibition of RabGGTase in HEK293 cells assessed as reduction in geranylgeranylation of Rab5b protein at 20 uM incubated for 48 hrs by SDS-PAGE and immunoblot analysis; format: cell-based
[26] = biological target: T1, Geranylgeranyl transferase type-2 (Homo sapiens); assay: Inhibition of RabGGTase in HEK293 cells assessed as increase in Rab5b protein in soluble fraction at 5 to 20 uM incubated for 48 hrs by SDS-PAGE and immunoblot analysis; format: cell-based
[27] = biological target: T1, Geranylgeranyl transferase type-2 (Homo sapiens); assay: Uncompetitive type inhibition of RabGGTase (unknown origin) using fixed Rab7 as substrate protein and varying [3H]geranylgeranyl pyrophosphate incubated for 20 mins by scintillation counting assay; format: protein-complex assay

- GI50 (K562): 6.74 to 6.9 µM
- GI50 (PANC-1 [1]): 7.52 to 11.7 µM
- GI50 (BT-474): 10.6 to 10.8 µM
- IC50 [2]: 5.4 to 7.6 µM
- GI50 (Jurkat [3]): 5.62 to 6.9 µM
- GI50 (MDA-MB-231): 5.54 to 12.6 µM
- GI50 (ASPC1): 11.5 to 12.9 µM
- GI50 (MIA PaCa-2): 7.49 to 8.06 µM
Structure (SMILES): Cc1ccccc1S(=O)(=O)N1[C@@H](c2ccc(Cl)c(Cl)c2)C(C(=O)N[C@@H](Cc2ccccc2)C(N)=O)=C[C@H]1C(C)(C)C
- GI50 (CFPAC-1): 2.03 to 6.09 µM
- GI50 (Capan-2): 8.45 to 11.3 µM

Structure (SMILES): COC(=O)[C@H](Cc1ccccc1)NCC(=O)OCC1=C[C@@H](C(C)(C)C)N(S(=O)(=O)c2ccccc2C)[C@H]1c1ccc(Cl)cc1
- inhibition (HEK293 [4]): Active
- inhibition (HEK293 [5]): Active

- inhibition [7]: Active
- inhibition (Rattus norvegicus [8]): inactive
- IC50 [10]: 2 µM
- IC50 [2]: 0.5 to 2.5 µM
- Activity (Rattus norvegicus [11]): 13.3%
- inhibition (Rattus norvegicus [12]): Active
- inhibition [14]: inactive
- Activity (Rattus norvegicus [16]): 5.3%
- inhibition (Rattus norvegicus [17]): Active
Structure (SMILES): Cc1ccccc1S(=O)(=O)N1[C@@H](c2ccc(Cl)cc2)C(C(=O)O)=C[C@H]1C(C)(C)C (relative stereo)
- inhibition (HEK293 [6]): Active
- growth inhibition (GI) (PANC-1 [9]): Active
- growth inhibition (GI) (Jurkat [13]): Active
- inhibition (HEK293 [15]): Active
- inhibition (HEK293 [18]): inactive

- inhibition [20]: inactive
- IC50 [2]: > 50 µM
- Ki [21]: 1.36 µM
- IC50 [22]: 2.1 µM
- inhibition [23]: Active
- IC50 [24]: > 100 µM
- inhibition [25]: Active
- inhibition [26]: Active
- inhibition [27]: Active
Structure (SMILES): CCCCCCS[C@H]1[C@@H](C(=O)O)[C@H](c2ccc(Br)cc2)N(S(=O)(=O)c2ccc(C)cc2)[C@@H]1CCC
- inhibition (HEK293 [19]): inactive
